For 15 compounds, TGI and GI50 results are on record in PubChem BioAssay (NCI).

Test systems include HT29 colon; MDA-MB-231 breast; SF-268 CNS; UACC-62 melanoma; UO-31 renal; CCRF-CEM leukemia; SR leukemia; HOP-92 NSCLC.
Holding throughout (experiment): inhibition of tumour cell growth, NCI panel, 48 h

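Five compound concentrations were applied to cells in 96-well plates for 48 hours; endpoints were derived by simple linear interpolation of the resulting dose-response curve. GI50 marks 50% less growth. TGI: concentration producing complete growth inhibition.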

`O=C1CC2(CCN(Cc3ccccc3)CC2)C(=O)N1N1CCCCC1`: the TGI in the test on HT29 colon, with MDA-MB-231 breast, in the test with SF-268 CNS, in the test on UACC-62 melanoma and in the test with UO-31 renal was more than 100 µM throughout.
In the case of `C=CC[PH+](c1ccccc1)c1ccccc1.C=CC[PH+](c1ccccc1)c1ccccc1.[Pt+2].[S-]c1nc2ccccc2[nH]1.[S-]c1nc2ccccc2[nH]1`, the GI50 was 1.9 µM in the test on CCRF-CEM leukemia; 2.62 µM with HT29 colon; 2.77 µM in the test with SF-268 CNS; 2.71 µM in the test on SR leukemia; 2.58 µM in the test on UO-31 renal. In addition, the TGI is more than 100 µM in the test with CCRF-CEM leukemia; more than 100 µM in the test on HT29 colon; more than 100 µM with SF-268 CNS; more than 100 µM in the test with SR leukemia; 36.5 µM in the test with UO-31 renal.
Consider `CN1N=C(c2ccncc2)OC1c1ccc(C(F)(F)F)cc1` (stereo not given), for which the TGI in the test on CCRF-CEM leukemia, in the test with HT29 colon, in the test with MDA-MB-231 breast, in the test with SF-268 CNS, with UACC-62 melanoma and with UO-31 renal was more than 100 µM in each case.
Consider `COc1ccc(C(CC(=O)c2cccs2)C(=O)c2ccc3c(c2)OCO3)cc1` (stereo not given), for which the TGI with CCRF-CEM leukemia, in the test with MDA-MB-231 breast, in the test on SF-268 CNS and with UACC-62 melanoma was more than 100 µM each time.
For `Cc1nc2nnc(CCCCCCCCc3nnc4nc(C)[nH]n34)n2[nH]1`, the TGI in the test on CCRF-CEM leukemia, in the test with HOP-92 NSCLC, with HT29 colon, in the test with MDA-MB-231 breast, in the test on SF-268 CNS and in the test with UO-31 renal was more than 100 µM in each case.
Turning to `O=C(O)COc1c(Cl)cc(Cl)c(C(c2c(Cl)cc(Cl)c(OCC(=O)O)c2Cl)C(Cl)(Cl)Cl)c1Cl`, the TGI was 62.4 µM with HOP-92 NSCLC; 92.6 µM in the test on HT29 colon; 61.3 µM with MDA-MB-231 breast; more than 100 µM in the test with SF-268 CNS; 37.9 µM in the test with UACC-62 melanoma; 55.2 µM in the test on UO-31 renal.
As for `CN(CCNC(=O)c1nn(C)c2c1Cc1ccccc1-2)CCNC(=O)c1nn(C)c2c1Cc1ccccc1-2`, the TGI in the test on HOP-92 NSCLC was determined as 29.3 µM; with HT29 colon, 33.5 µM; in the test on MDA-MB-231 breast, 38.1 µM; in the test with SF-268 CNS, 29.4 µM; with UACC-62 melanoma it was 28.7 µM; in the test on UO-31 renal, 24.2 µM.
As for `CC(=O)CC(O)(C(F)(F)Cl)C(F)(Cl)Cl` (stereo not given), the TGI with CCRF-CEM leukemia, with HOP-92 NSCLC, with HT29 colon, with MDA-MB-231 breast, in the test on SF-268 CNS and with UACC-62 melanoma was more than 10 µM each time. The TGI in the test on UO-31 renal is more than 10 µM.
Take `c1c2c(cc3c1OCO3)-c1ncc3cc4c(cc3c1C2)OCO4`: the GI50 is 17.6 µM in the test on CCRF-CEM leukemia; 33.4 µM in the test on HOP-92 NSCLC; less than 0.01 µM in the test on HT29 colon; 0.112 µM in the test on SF-268 CNS; less than 0.01 µM with SR leukemia; less than 0.0267 µM in the test on UACC-62 melanoma. Moreover, the GI50 in the test on UO-31 renal was 2.49 µM. Further, the TGI was more than 100 µM in the test on CCRF-CEM leukemia; more than 80.5 µM with HOP-92 NSCLC; more than 100 µM in the test on HT29 colon; 7.79 µM with SF-268 CNS; 9.16 µM with UACC-62 melanoma; more than 100 µM in the test on UO-31 renal.
For `O=[N+]([O-])c1ccc(CSC2=C(c3ccc(Cl)cc3)S/C(=C3\SC(SCc4ccc([N+](=O)[O-])cc4)=C(c4ccc(Cl)cc4)S3)S2)cc1`, the TGI with CCRF-CEM leukemia, with HOP-92 NSCLC, in the test with HT29 colon, in the test with MDA-MB-231 breast, with SF-268 CNS and with UACC-62 melanoma was more than 100 µM each time.
As for `N#CC1=C(N)OC2=C(CCCc3ccc([N+](=O)[O-])cc32)C1c1ccc(Cl)cc1` (stereo not given), the TGI in the test on CCRF-CEM leukemia was more than 100 µM; in the test on HOP-92 NSCLC it was more than 100 µM; in the test on HT29 colon, more than 100 µM; with MDA-MB-231 breast, more than 100 µM; in the test with SF-268 CNS, more than 100 µM; in the test on UACC-62 melanoma it was 20.2 µM. Moreover, the TGI in the test with UO-31 renal was more than 100 µM.
Take `C=CCCCCCCCCCOC1C=CC(O)C(CO)O1` (stereo not given): the TGI in the test with HOP-92 NSCLC is more than 100 µM; with HT29 colon it was 46.4 µM; in the test with MDA-MB-231 breast it was more than 100 µM; with SF-268 CNS, more than 100 µM; in the test on UACC-62 melanoma, 97.4 µM; with UO-31 renal, more than 100 µM.
For `COc1ccc(Cl)cc1NC(=O)O/N=C(\Cl)C(C)C`, the TGI is more than 29.7 µM with CCRF-CEM leukemia; 3.9 µM in the test on HOP-92 NSCLC; 43.8 µM in the test with HT29 colon; 15.1 µM in the test with MDA-MB-231 breast; 47.4 µM in the test on SF-268 CNS; 32.1 µM with UACC-62 melanoma. The TGI with UO-31 renal came out at 28.5 µM.
`O=c1[nH]nc(-c2cccc([N+](=O)[O-])c2)[nH]1`: the TGI in the test with CCRF-CEM leukemia, in the test with HT29 colon, in the test with SF-268 CNS, in the test on SR leukemia, with UACC-62 melanoma and with UO-31 renal was more than 100 µM each time.
In the case of `Cc1cc2nc3c(N)nn(CCCN(C)C)c3nc2cc1C`, the TGI with HT29 colon, in the test with MDA-MB-231 breast, in the test with SF-268 CNS, with UACC-62 melanoma and in the test with UO-31 renal was more than 100 µM throughout.
